Source: US5830851A (Affymax Technologies N.V., priority 1995, dated 1998)
“Also recorded” adds a separate entry of the source. Values belong to the molecule of their own block, whether it stands above or below them. Residues, ends and D or L forms follow the SMILES beside them. No end group written: not given here.

Key:
[1] = biological target: T1, human EPO-R (FDCP-1/hEPO-R cells) (Homo sapiens, UniProt P19235); experiment: FDCP-1/hEPO-R cell proliferation bioassay; assay type: cell-based
T1 construct: expressed in transfected cells; host or cells: FDCP-1 (murine hematopoietic progenitor cell line)
T1 sequence (P19235 25-508): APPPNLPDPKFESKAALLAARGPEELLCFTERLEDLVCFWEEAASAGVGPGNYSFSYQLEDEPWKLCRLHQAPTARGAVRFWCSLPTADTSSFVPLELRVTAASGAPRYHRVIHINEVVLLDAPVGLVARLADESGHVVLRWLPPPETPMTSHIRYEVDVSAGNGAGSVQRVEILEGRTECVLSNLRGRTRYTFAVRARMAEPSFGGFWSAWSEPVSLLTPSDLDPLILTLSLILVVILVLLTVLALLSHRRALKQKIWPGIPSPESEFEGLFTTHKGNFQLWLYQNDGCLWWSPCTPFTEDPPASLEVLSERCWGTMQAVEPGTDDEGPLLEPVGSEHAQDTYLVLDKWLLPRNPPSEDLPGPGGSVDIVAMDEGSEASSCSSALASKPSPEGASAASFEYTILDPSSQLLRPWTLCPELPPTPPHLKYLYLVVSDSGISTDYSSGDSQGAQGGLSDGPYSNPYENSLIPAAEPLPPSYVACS
Method: One assay utilized FDCP-1, a growth factor dependent murine multi-potential primitive hematopoietic progenitor cell line (see, e.g., Dexter et al. (1980) J. Exp. Med. 152:1036-1047), as the parental cell line. This cell line can proliferate, but not differentiate, when supplemented with WEHI3-conditioned media (a medium that contains IL-3, ATCC number T1B68).
In brief, the cells are grown to half stationary density in the presence of the necessary growth factors. The cells are then washed in PBS and starved for 16-24 hours in whole media without the growth factors. After determining the viability of the cells, stock solutions (in whole media without the growth factors) are made to give about 10^5 cells per 50 microliters. […] Cells (50 microliters) are added to each well and the cells are incubated 24-48 hours, at which point the negative controls should die or be quiescent. Cell proliferation is then measured by techniques known in the art, such as an MTT assay which correlates with ^3 H-thymidine incorporation as an indication of cell proliferation (see, Mosmann (1983) J. Immunol. Methods 65:55).

[2] = biological target: T2, truncated human erythropoietin receptor (Homo sapiens, UniProt P19235); experiment: cell-based
T2 sequence (P19235 25-468 limits assumed): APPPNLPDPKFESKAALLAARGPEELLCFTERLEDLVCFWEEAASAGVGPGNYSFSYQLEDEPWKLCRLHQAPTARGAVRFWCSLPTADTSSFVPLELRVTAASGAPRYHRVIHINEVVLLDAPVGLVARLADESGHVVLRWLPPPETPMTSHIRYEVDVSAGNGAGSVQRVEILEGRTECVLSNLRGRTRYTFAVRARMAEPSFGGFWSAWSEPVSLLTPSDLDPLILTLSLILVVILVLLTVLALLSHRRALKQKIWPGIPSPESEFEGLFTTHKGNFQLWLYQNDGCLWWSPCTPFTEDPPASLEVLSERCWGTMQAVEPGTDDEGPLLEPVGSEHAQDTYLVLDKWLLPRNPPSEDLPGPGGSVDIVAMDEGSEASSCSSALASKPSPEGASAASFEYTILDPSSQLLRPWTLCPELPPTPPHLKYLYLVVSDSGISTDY
Method: Cells are counted and resuspended at a concentration of 800,000 cells/ml. Approximately forty thousand cells (50μ) are added to each well of a 96 well microtiter plate. Peptide is added to each well in triplicate. A standard dose response determination is run with each series of peptides. After a forty-two hr incubation (≈2 doubling), each well is pulsed with 1 μCi/well Thymidine. Cells are incubated an additional six hr at which time cells are harvested and counted to assess thymidine incorporation as an indicator of cell proliferation.

[3] = biological target: T3, extracellular domain of the human erythropoietin receptor (EPO binding protein, EBP) (Homo sapiens, UniProt P19235); experiment: Immobilized EBP based [125I]EPO competition binding assay; details: IC50 relative to RWJ61233 (IC50 of 5 μM)
T3 construct: made in house; host or cells: E. coli
T3 sequence (P19235 25-250 limits assumed): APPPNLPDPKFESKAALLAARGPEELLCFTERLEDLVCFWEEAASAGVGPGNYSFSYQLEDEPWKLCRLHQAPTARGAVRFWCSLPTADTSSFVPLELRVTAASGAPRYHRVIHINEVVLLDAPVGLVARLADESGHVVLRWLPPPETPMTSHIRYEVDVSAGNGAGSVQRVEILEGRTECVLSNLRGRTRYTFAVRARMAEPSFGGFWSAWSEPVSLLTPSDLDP
Method: The iodoacetyl activation chemistry of Sufolink beads (Pierce Chemical Co, Rockford, Ill.) is specific for free thiols and assures that the linkage is not easily reversible. EBP-Sulfolink beads were made as follows: SulfoLink gel suspension (10 ml) was mixed with coupling buffer (40 ml: 50 mM Tris, pH 8.3, 5 mM EDTA) and the gel was allowed to settle. The supernatant was removed and the EBP (0.3-1 mg/ml in coupling buffer) to be bound was added directly to the washed beads. The mixture was rocked gently for 30 minutes at room temperature, and the beads were allowed to settle for 1 hour at room temperature. […] The amount of EBP which was covalently bound to the beads was determined by comparing the OD280 of the original EBP solution to the total OD280 recovered in the reaction supernatant and the two 20 ml washes.
Binding assays were initiated by the addition of EBP beads (50 μl) to individual reaction tubes. […] The tubes were incubated for five hours (a time period experimentally determined as adequate for the establishment of equilibrium) at room temperature with gentle rocking. […]
Competitive binding analysis assays of candidate peptides were performed as outlined below. […] The columns containing the washed beads were placed in 12×75 mm glass tubes and bound radioactivity levels were determined using a gamma counter.

Molecule: CC(C)C[C@@H]1NC(=O)[C@@H]2CCCN2C(=O)CNC(=O)[C@H](Cc2ccccc2)NC(=O)[C@H](Cc2c[nH]cn2)NC(=O)[C@@H](NC(=O)[C@H](CO)NC(=O)[C@H](Cc2ccc(O)cc2)NC(=O)[C@@H](NC(=O)CNC(=O)CN)[C@@H](C)O)CSSC[C@@H](C(=O)N[C@@H](CCCCN)C(=O)N2CCC[C@H]2C(=O)N[C@@H](CCC(N)=O)C(=O)NCC(=O)NCC(=O)N[C@@H](CO)C(=O)N[C@@H](CO)C(=O)N[C@@H](CCCCNC(=O)CCCCCNC(=O)CCCC[C@@H]2SC[C@@H]3NC(=O)N[C@@H]32)C(N)=O)NC(=O)[C@H](C(C)C)NC(=O)[C@H](Cc2c[nH]c3ccccc23)NC(=O)[C@H]([C@@H](C)O)NC1=O [AF11505] (HELM PEPTIDE1{G.G.T.Y.S.C.H.F.G.P.L.T.W.V.C.K.P.Q.G.G.S.S.K.[am]}|PEPTIDE2{[O=C1N[C@H]2[C@H](CS[C@H]2CCCCC(=O)[*:2])N1].[O=C(CCCCCN[*:1])[*:2]]}$PEPTIDE1,PEPTIDE2,23:R3-2:R2|PEPTIDE1,PEPTIDE1,6:R3-15:R3$$$V2.0; N-terminus and C-terminus assumed; bridges inferred)
EC50 ([1]; free peptides, read-out: EPO-ED50): ~1000 nM

Molecule: CC(C)C[C@@H]1NC(=O)[C@@H]2CCCN2C(=O)CNC(=O)[C@H](Cc2ccccc2)NC(=O)[C@H](Cc2c[nH]cn2)NC(=O)[C@@H](NC(=O)[C@H](CO)NC(=O)[C@H](Cc2ccc([N+](=O)[O-])cc2)NC(=O)[C@@H](NC(=O)CNC(=O)CN)[C@@H](C)O)CSSC[C@@H](C(=O)N[C@@H](CCCCN)C(=O)N2CCC[C@H]2C(=O)N[C@@H](CCC(N)=O)C(=O)NCC(=O)NCC(N)=O)NC(=O)[C@H](C(C)C)NC(=O)[C@H](Cc2c[nH]c3ccccc23)NC(=O)[C@H]([C@@H](C)O)NC1=O [RWJ 61894, GGTXSCHFGPLTWVCKPQGG] (HELM PEPTIDE1{G.G.T.[O=C([C@H](Cc1ccc([N+](=O)[O-])cc1)N[*:1])[*:2]].S.C.H.F.G.P.L.T.W.V.C.K.P.Q.G.G.[am]}$PEPTIDE1,PEPTIDE1,6:R3-15:R3$$$V2.0)
EC50 [2]: 800 nM

Molecule: CC(C)C[C@@H]1NC(=O)[C@@H]2CCCN2C(=O)CNC(=O)[C@H](Cc2ccccc2)NC(=O)[C@H](Cc2c[nH]cn2)NC(=O)[C@@H](NC(=O)[C@H](CO)NC(=O)[C@H](Cc2ccc(N)cc2)NC(=O)[C@@H](NC(=O)CNC(=O)CN)[C@@H](C)O)CSSC[C@@H](C(=O)N[C@@H](CCCCN)C(=O)N2CCC[C@H]2C(=O)N[C@@H](CCC(N)=O)C(=O)NCC(=O)NCC(N)=O)NC(=O)[C@H](C(C)C)NC(=O)[C@H](Cc2c[nH]c3ccccc23)NC(=O)[C@H]([C@@H](C)O)NC1=O [RWJ 62019, GGTXSCHFGPLTWVCKPQGG] (HELM PEPTIDE1{G.G.T.[Nc1ccc(C[C@H](N[*:1])C(=O)[*:2])cc1].S.C.H.F.G.P.L.T.W.V.C.K.P.Q.G.G.[am]}$PEPTIDE1,PEPTIDE1,6:R3-15:R3$$$V2.0)
EC50 [2]: 3000 nM

Relative Binding [3]: 4
Molecule: CC(=O)NCC(=O)NCC(=O)N[C@H](C(=O)N[C@@H](Cc1ccc(O)cc1)C(=O)N[C@@H](CO)C(=O)N[C@H]1CSSC[C@@H](C(=O)N[C@@H](CCCCN)C(=O)N2CCC[C@H]2C(=O)N[C@@H](CCC(N)=O)C(=O)NCC(=O)NCC(N)=O)NC(=O)[C@H](C(C)C)NC(=O)[C@H](Cc2c[nH]c3ccccc23)NC(=O)[C@H]([C@@H](C)O)NC(=O)[C@H](CC(C)C)NC(=O)[C@@H]2CCCN2C(=O)CNC(=O)[C@H](Cc2ccccc2)NC(=O)[C@H](Cc2c[nH]cn2)NC1=O)[C@@H](C)O [RWJ 62146] (HELM PEPTIDE1{[ac].G.G.T.Y.S.C.H.F.G.P.L.T.W.V.C.K.P.Q.G.G.[am]}$PEPTIDE1,PEPTIDE1,7:R3-16:R3$$$V2.0)

reduction in EPO-ED50 / increase in potency over the free peptide [1]: one log reduction
Molecule: GGTYSCHFGPLTWVCKPQGGSSK+G anti-B: biotinylated peptide preincubated with purified goat anti-biotin IgG at a 2:1 molar ratio (cysteine pairing not given here; also: biotinylated, site not given here, preincubated with goat anti-biotin IgG at 2:1 molar ratio)

Relative Binding [3]: > 100
Molecule: RWJ 61721: sequence analog peptide shown only as a drawing in Table 19 (GGTYSEHFGPLTWVKKPQGG)

Molecule: Streptavidin: streptavidin alone, control for the complex [reference compound]
stimulatory effect alone ([1]; tested without peptide): some small stimulatory effect at the highest concentrations; also recorded: marginal activity at high concentrations
